Here are results for five compounds from US10668068B2, “Treating cancer with drug combinations” (The Research Foundation for The State University of New York, priority 2015, dated 2020).

Experiment [1] has as its target T1, BTK-C (Homo sapiens, UniProt Q06187).
T1 construct: Flag; expressed in transfected cells; host or cells: SKBR3-BTK-C (SKBR3 human breast cancer cells expressing BTK-C)
Description: Inhibition of BTK-C kinase activity / activating phosphorylation (FIG. 8A-C). It counts as cell-based.

The subject of experiment [2] is EGFR, HER2, Her3 and ErbB4. Description: Western blotting of EGFR family activation and downstream Akt/Erk in BT474 cells. The following applies: 2 hours; for phosphorylation (activation) of EGFR family: ibrutinib 0.05 or 0.1 μM, AVL-292 0.1 μM. It counts as cell-based, human. The procedure: (§1) Immunoblotting was performed essentially as described previously. Equal amounts of proteins were used. Antibodies used were anti-EGFR (1:1000,), anti-HER2 (1:1000,), anti-ERBB3, ERBB4 antibody, anti-BTK, anti-AKT, ERIK, anti-PLCγ1, PLCγ2 and anti-PARP (1:1000, cell signaling), anti-Flag antibody (1:1000, Sigma), anti-rabbit IgG-HRP and mouse IgG-HRP (1:5000, Jackson ImmunoResearch).
Background: Immunoblotting shows a protein as a band on a membrane.

Experiment [3] relates to BT474 cells. Description: Cell growth assay (live cell count), monolayer culture. It counts as cell-based, human. The following applies: 0.01 μM, 3 days. The text has this: (§2) For live cell counts, cell growth on 96-well plates were fixed 4% formaldehyde and counterstained with Hoechst 33342 for nuclei.
In experiment [4] the test system is BT474 human breast cancer cells. Description: Cell cycle analysis (propidium iodide, flow cytometry). It counts as cell-based. On the technique in general: A flow cytometer gives signals particle by particle.
Description: After trypsinized, cells were collected and washed with cold PBS. Cells were fixed with 70% ethanol, washed and stained with PI/Triton X-100 staining solution (0.1% triton X-100, 2 μg/ml PI and 0.2 mg/ml DNAse-free RNAse) for 30 min. Samples were analyzed by flow cytometry.
The test system of experiment [5] is BT474 cells. Description: Nine days NRG1 co-treatment, crystal violet staining. It counts as cell-based, human. The following applies: 9 days, drug 1 uM, NRG1 50 ng/ml. The procedure: (§3) Cells were cultured in 6-well plates for indicated days. Cells were fixed with 3.7% paraformaldehyde for 10 min and washed with PBS. After wash, cells were stained with 0.05% CV for 30 min Whole plate was washed with tape water. Dry plate was added with 0.5 ml methanol to solubilize the dye. Taking an aliquot to 96-well plate and reading CV stain with OD 540. Tumorospheres were counted under low magnification.

Experiment [6] concerns SKBR3 cells. Described as above. The following applies: 9 days, drug 1 uM, NRG1 50 ng/ml. It counts as cell-based, human. As for the experimental part:
as §3

Experiment [7] has as its system AKT. Description: Immunoblots of NRG1 effect on HER2, AKT and ERK activation in BT474 and SkBR3 cells. It counts as cell-based, human. The following applies: 2 h. As for the experimental part: as §1
Experiment [8] deals with xenografts of SKBR3. As for the experimental part: NOD/SCID mice were purchased from Jackson Lab (The Jackson Laboratory, Bar Harbor, Me., USA). All mouse procedures were approved by the Animal Care and Use Committees of SUNY Albany and performed in accordance with institutional policies.
For xenograft tumor studies, 1×10^6 SKBR3 cells were suspended in 50 μl Matrigel (BD Biosciences) diluted 1:2 with DMEM and injected into mammary fat pad. Treatment began when tumors were palpable. […] The tumor volume in mm^3 is calculated by the formula: volume=(width)^2×length/2 every 7 days.

For experiment [9], the system named is HER2-positive breast cancer cells. Description: Apoptosis assay (Alexa Fluor 488 annexin V).
Experiment [10] has the same test system. Description: Live cell count with NRG1 or EGF (growth factor driven rescue).
Experiment [11] deals with SKBR3 cells. Description: Cell growth assay (live cell count). It counts as cell-based, human. The following applies: 1 μM, 3 days.
Text: as §2

The subject of experiment [12] is HER2-positive breast cancer cells. Description: Cell growth assay (live cell count). It counts as cell-based. The following applies: Homo sapiens, 72 h; 3 days of culture; read-out: IC50 for effect on HER2-positive breast cancer cells.
Text: as §2

Experiment [13] concerns breast cancer cells. The following applies: cited from earlier work.

Structures are written as SMILES.

T1 sequence (Q06187 1-693 isoform Q06187-2): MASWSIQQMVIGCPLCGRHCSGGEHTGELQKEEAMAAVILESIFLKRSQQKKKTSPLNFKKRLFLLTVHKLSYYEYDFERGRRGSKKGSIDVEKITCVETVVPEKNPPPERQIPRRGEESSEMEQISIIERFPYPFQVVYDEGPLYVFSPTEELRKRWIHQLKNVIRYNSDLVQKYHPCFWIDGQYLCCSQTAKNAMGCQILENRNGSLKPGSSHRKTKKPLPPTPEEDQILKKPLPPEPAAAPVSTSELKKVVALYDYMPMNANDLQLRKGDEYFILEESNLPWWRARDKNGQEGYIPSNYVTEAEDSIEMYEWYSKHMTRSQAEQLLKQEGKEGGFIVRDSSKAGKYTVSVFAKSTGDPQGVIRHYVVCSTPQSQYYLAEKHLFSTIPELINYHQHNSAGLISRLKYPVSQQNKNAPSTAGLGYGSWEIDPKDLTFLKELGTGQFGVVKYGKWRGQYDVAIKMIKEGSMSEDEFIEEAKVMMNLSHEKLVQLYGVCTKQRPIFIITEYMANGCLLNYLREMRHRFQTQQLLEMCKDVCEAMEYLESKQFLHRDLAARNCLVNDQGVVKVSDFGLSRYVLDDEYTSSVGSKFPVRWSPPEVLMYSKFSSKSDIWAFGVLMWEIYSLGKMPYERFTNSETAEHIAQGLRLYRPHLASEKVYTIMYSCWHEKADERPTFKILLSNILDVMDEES

In the case of `C=CC(=O)Nc1cccc(Nc2nc(Nc3ccc(OCCOC)cc3)ncc2F)c1` [AVL-292, N-(3-((5-fluoro-2((4-(2-methoxyethoxy)phenyl)amino)pyrimidin-4-yl)amino)phenyl)acrylamide], the BTK-C activating phosphorylation result in experiment [1] (FIG. 8C) is “inhibit BTK-C activating phosphorylation”. The “inhibition of BTK-C kinase activity” value in experiment [1] (compared with ibrutinib) is listed as “inhibit BTK-C kinase activity to the same degree as ibrutinib”. Moreover, the “phosphorylation (activation) of EGFR family” value in [2] is “does not block EGFR family signaling pathway activation”.
For the compound `Cc1c(NC(=O)c2ccc(C(C)(C)C)cc2)cccc1-c1cn(C)c(=O)c(Nc2ccc(C(=O)N3CCOCC3)cc2)n1` [CGI-1746], the “phosphorylation (activation) of EGFR family” value in experiment [2] is “but not AVL-292 and CGI-1746, efficiently blocks activation of EGFR, HER2, ErbB3, and ErbB4”.
With `CS(=O)(=O)CCNCc1ccc(-c2ccc3ncnc(Nc4ccc(OCc5cccc(F)c5)c(Cl)c4)c3c2)o1` [lapatinib], the “reduction of cell numbers” value in experiment [3] (monolayer) was “fails to reduce HER2-positive breast cancer cell numbers significantly”. In addition, the “Akt and Erk phosphorylation / downstream signaling” value in experiment [2] is “inhibits both AKT and ERK phosphorylation”. Further, in [4] (24 hours), the G1-S arrest entry is recorded as “appreciable G1-S arrest”. The “drug resistance after NRG1 co-treatment” value in experiment [5] and in experiment [6] was “yields cells that exhibit lapatinib resistance” each time. The “re-activation of AKT by NRG1” value in [7] (co-treatment with NRG1 50 ng/ml) is listed as “NRG1 re-activates AKT without activation of HER2”. Besides, the “activation of HER2, AKT and ERK” value in experiment [7] (drug alone) is “blocked”. In addition, the “potency in SKBR3 tumor xenograft compared with ibrutinib 12 mg/kg/day” value in experiment [8] (lapatinib 75 mg/kg/day p.o.) is on record as “less potent”. In addition, the “number of apoptotic cells” value in experiment [9] (0.05 or 0.1 μM, 24 hours) was “increase in the number of apoptotic cells”. Also, the “rescue from growth inhibition by NRG1” value in experiment [10] (50 ng/ml of NRG1, 3 days) was “NRG1 application is able to rescue”. Besides, the cell growth suppression entry in experiment [10] (drug without growth factor, 3 days) is reported as “potently suppresses cell growth”.
Usually IC50 stands for the point on the concentration scale where inhibition reaches its midpoint. As for `C=CC(=O)N1CCC[C@@H](n2nc(-c3ccc(Oc4ccccc4)cc3)c3c(N)ncnc32)C1` [ibrutinib], the “reduction of cell numbers” value in experiment [11] was “more than 80%”. Besides, the “cell population, % of control” value in [3] (BT474 monolayer) is listed as 30 % of control. Also, in experiment [12], the IC50 worked out at 0.03 µM. For the same compound, the “decrease in the number of cells in the S phase” value in experiment [4] (0.03 μM, compared with controls) is 50%. Also, in [8] (12 mg/kg/day p.o., day 28), the “tumor volume smaller than vehicle control / inhibition of tumor growth” value is given as 45%. Besides, the “apoptosis induction compared with lapatinib” value in experiment [9] (HER2-positive breast cancer cells) was 1.5 fold.
As to `C/C(O)=C(\C#N)C(=O)Nc1cc(Br)ccc1Br` [LFM-A13], the apoptosis levels entry in [13] is “increase apoptosis levels”.
